According to patent US11884667B1, “Substituted pyrrolo[2,3-c][2,7]naphthyridines as CK2 inhibitors” (KING FAISAL UNIVERSITY, priority 2023, dated 2024):

Legend:
[1] = system: HCT116 (colon); experiment: In vitro cytotoxic activity (MTT) assay, HCT116; format: cell-based; conditions: Homo sapiens, HCT-116, 96 hours exposure, read-out: IC50, 50% inhibition of cell proliferation
Description: (§1) Compounds 1-15 were screened for their in vitro cytotoxic activity utilizing a 3-(4,5-dimethyl-thiazol-2-yl)-2,5-diphenyltetrazolium bromide (MTT) assay against selected cancer human cell lines consisting of PC3 (prostate), HCT116 (colon), A375 (melanoma), H1299 (lung), MIAPaCa-2 (pancreas), HL60 (leukemia), MCF7 (breast), MDA-MB-231 (breast) (T. Mosmann, J. Immunol. Meth., 1983, 65, 55-63). The cells were cultured at 37° C. in RMPI1640 medium supplemented with 10% fetal bovine serum, 50 IU/mL penicillin, and 50 μg/mL streptomycin in a 5% CO2 incubator. All cells were sub-cultured 3 times/week by trypsinization. Viable cells were seeded and allowed to adhere for 12 h before a test drug was added in 96-well plates at an initial density of 1.0×10^5 cells/mL. Tumour cell lines were separately exposed to various concentrations of the tested compounds followed by incubation at a temperature of 37° C. during 96 h inside a medium of fresh RMPI 1640. Cells were subsequently incubated at 37° C. using MTT at 0.5 mg/mL during 4 h. After removal of supernatant, formazan crystals were dissolved in isopropanol and the optical density was measured at 570 nm. CX-4945 was used as a positive control.

[2] = system: PC3 (prostate); experiment: In vitro cytotoxic activity (MTT) assay, PC3; format: cell-based; conditions: Homo sapiens, 96 hours exposure, read-out: IC50, 50% inhibition of cell proliferation
Description: as §1

[3] = system: MCF7 (breast); experiment: In vitro cytotoxic activity (MTT) assay, MCF7; format: cell-based; conditions: Homo sapiens, 96 hours exposure, read-out: IC50, 50% inhibition of cell proliferation
Description: as §1

[4] = system: H1299 (lung); experiment: In vitro cytotoxic activity (MTT) assay, H1299; format: cell-based; conditions: Homo sapiens, NCI-H1299, 96 hours exposure, read-out: IC50, 50% inhibition of cell proliferation
Description: as §1

[5] = system: MIAPaCa-2 (pancreas); experiment: In vitro cytotoxic activity (MTT) assay, MIAPaCa-2; format: cell-based; conditions: Homo sapiens, MIA PaCa-2, 96 hours exposure, read-out: IC50, 50% inhibition of cell proliferation
Description: as §1

[6] = system: MDA-MB-231 (breast); experiment: In vitro cytotoxic activity (MTT) assay, MDA-MB-231; format: cell-based; conditions: Homo sapiens, 96 hours exposure, read-out: IC50, 50% inhibition of cell proliferation
Description: as §1

[7] = system: HL60 (leukemia); experiment: In vitro cytotoxic activity (MTT) assay, HL60; format: cell-based; conditions: Homo sapiens, HL-60, 96 hours exposure, read-out: IC50, 50% inhibition of cell proliferation
Description: as §1

[8] = molecular target: T1, recombinant human CK2 (RRββ-holoenzyme) (Homo sapiens, UniProt P68400); experiment: CK2 kinase assay ([γ-33P]ATP, filter plate); format: biochemical; conditions: final ATP 15 μM, 10 min at 30° C.; read-out: protein kinase CK2 IC50
T1 construct: purchased Millipore
Description: CK2 Kinase Assay was conducted using the protocol as described in Pierre F. et al; J. Med. Chem. 2011, 54, 635-654. The tested compounds in aqueous solution were added at a volume of 10 μL to a reaction mixture comprising 10 μL of assay dilution buffer (ADB; 20 mM MOPS, pH 7.2, 25 mM β-glycerol phosphate, 5 mM EGTA, 1 mM sodium orthovanadate, and 1 mM dithiothreitol), 10 μL of substrate peptide (RRRDDDSDDD, dissolved in ADB at a concentration of 1 mM), 10 μL of recombinant human CK2 (RRββ-holoenzyme, 25 ng dissolved in ADB; Millipore). Reactions were initiated by the addition of 10 μL of ATP solution (90% 75 mMMgCl2, 75 μM ATP (final ATP concentration:15 μM) dissolved in ADB; 10% [γ-33P] ATP (stock 1mCi/100 μL; 3000 Ci/mmol (Perkin-Elmer) and maintained for 10 min at 30° C. The reactions were quenched with 100 μL of 0.75% phosphoric acid and then transferred to and filtered through a phosphor cellulose filter plate (Millipore). After washing each well five times with 0.75% phosphoric acid, the plate was dried under vacuum for 5 min and, following the addition of 15 μL of scintillation fluid to each well, the residual radioactivity was measured using a Wallac […]. The IC50 values were derived from eight concentrations of test inhibitors.

[9] = system: A375 (melanoma); experiment: In vitro cytotoxic activity (MTT) assay, A375; format: cell-based; conditions: Homo sapiens, A-375, 96 hours exposure, read-out: IC50, 50% inhibition of cell proliferation
Description: as §1

T1 sequence (P68400 whole entry): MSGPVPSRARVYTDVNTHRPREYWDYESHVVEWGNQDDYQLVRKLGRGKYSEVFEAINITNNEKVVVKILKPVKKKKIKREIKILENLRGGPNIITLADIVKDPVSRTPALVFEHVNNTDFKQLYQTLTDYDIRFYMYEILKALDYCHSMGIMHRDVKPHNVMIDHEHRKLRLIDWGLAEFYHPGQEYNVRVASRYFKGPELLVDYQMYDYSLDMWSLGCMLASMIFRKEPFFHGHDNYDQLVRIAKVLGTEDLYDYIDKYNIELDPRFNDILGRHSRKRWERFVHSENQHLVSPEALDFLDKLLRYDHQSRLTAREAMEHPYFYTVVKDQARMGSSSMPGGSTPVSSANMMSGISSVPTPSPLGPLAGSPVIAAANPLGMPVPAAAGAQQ
T1 sequence (P67870 whole entry partner): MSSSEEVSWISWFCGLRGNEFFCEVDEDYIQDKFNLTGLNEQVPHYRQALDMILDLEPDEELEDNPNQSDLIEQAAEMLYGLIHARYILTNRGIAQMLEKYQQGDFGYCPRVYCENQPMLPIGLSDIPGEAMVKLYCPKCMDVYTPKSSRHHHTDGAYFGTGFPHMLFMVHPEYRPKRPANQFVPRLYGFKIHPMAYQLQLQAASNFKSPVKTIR

Question: For O=C(O)c1cc2c(nc(Nc3cccc(Cl)c3)c3cnccc32)[nH]1 [Compound 1, 5-((3-chlorophenyl)amino)-3H-pyrrolo[2,3-c][2,7]naphthyridine-2-carboxylic acid], which IC50 [1] is on record?
Answer: Its IC50 is 900 nM.

Question: What about the IC50 [2] of the same compound?
Answer: The IC50 was 2600 nM.

Question: And the IC50 [3]?
Answer: The IC50 was 3300 nM.

Question: And the IC50 [4]?
Answer: Its IC50 is 1100 nM.

Question: And the IC50 [5]?
Answer: The IC50 was 800 nM.

Question: What about the IC50 [6] of the same compound?
Answer: Its IC50 is 4100 nM.

Question: And the IC50 [7]?
Answer: The IC50 was 2400 nM.

Question: And the IC50 [8]?
Answer: Its IC50 is 16 nM.

Question: What about the IC50 [9] of the same compound?
Answer: Its IC50 is 2700 nM.
